According to paper PMC2409616 (British Journal of Cancer, 2004):
Several values for one entry are separate records, joined by “and”; a condition that tells them apart may be missing. Equal entries are not always repeated. Where two headings read alike, the source gives them in different places.

What was measured:
UV4 [1] = system: UV4
SiHa = test: cells; settings: Homo sapiens, 4 h, read-out: IC50 following 4 h drug exposure
WiDr = test: cells; settings: Homo sapiens, 4 h, read-out: IC50 following 4 h drug exposure
V79^puro = test: cells; settings: Cricetulus griseus, 4 h, read-out: IC50 following 4 h drug exposure
AA8 = test: cells; settings: Cricetulus griseus, CHO-AA8, 4 h, read-out: IC50 following 4 h drug exposure
UV4 [2] = test: cells; settings: Cricetulus griseus, UV4, 4 h, read-out: IC50 following 4 h drug exposure
SiHa cells = test: Metabolic consumption of prodrug in stirred single-cell suspensions (loss from extracellular medium); settings: corrected to 10^6 cells ml^−1, mean±s.e.m., 2–3 cell suspensions
SiHa-NTR^puro cells = test: as above; settings: corrected to 10^6 cells ml^−1, mean±s.e.m., 2–3 cell suspensions
SiHa MCLs = test: Transport through multicellular layers (two-chamber diffusion apparatus); settings: 100 μM in donor compartment

Row | SMILES | First-order rate constant k of metabolic consumption (V79^puro cells (NTR−ve); V79^puro, corrected to 10^6 cells ml^−1, mean±s.e.m., 2–3 cell suspensions) | First-order rate constant k of metabolic consumption (V79-NTR^puro cells; V79-NTR^puro, corrected to 10^6 cells ml^−1, mean±s.e.m., 2–3 cell suspensions) | AA8/UV4 intra-experiment IC50 ratio (UV4 [1]) | IC50 (SiHa) | IC50 (WiDr) | IC50 (V79^puro) | IC50 (AA8) | IC50 (UV4 [2]) | First-order rate constant k of metabolic consumption (SiHa cells) | First-order rate constant k of metabolic consumption (SiHa-NTR^puro cells) | Bioactivity of HPLC fraction against UV4 cells (UV4 cells) | Appearance of metabolite in donor and receiver compartments (SiHa-NTR^puro MCLs) | Initial flux of metabolite (SiHa-NTR^puro MCLs; human) | Fold less potent in the four repair competent cell lines than in UV4 (UV4 [1]) | Appearance in the receiver compartment in the presence of an MCL vs bare support membrane (SiHa MCLs) | First-order rate constant k of metabolic consumption (V79^puro cells (NTR−ve); Chinese hamster) | First-order rate constant k of metabolic consumption (V79-NTR^puro cells; Chinese hamster) | Bioactivity of HPLC fraction against UV4 cells (UV4 cells; extracellular medium of V79-NTR^puro suspensions (5 × 10^6 ml^−1, 3 h) with CB 1954)
1 | NC(=O)c1cc(N(CCCl)CCCl)c([N+](=O)[O-])cc1[N+](=O)[O-] [compound 7, 5-[N,N-bis(2-chloroethyl)amino]-2,4-dinitrobenzamide] | 0.0020 ± 0.0001 h⁻¹ | 0.17 ± 0.003 h⁻¹ | ca 1.3 | > 800 µM | > 1000 µM | > 500 µM | ~1000 µM | 761 ± 89 µM | <0.001 h⁻¹ | 0.6 ± 0.2 h⁻¹ | – | – | – | – | – | – | – | –
2 | NC(=O)c1cc(N2CC2)c(N)cc1[N+](=O)[O-] [compound 5] | – | – | 1.2±0.1 | 163 ± 39 µM | 141 ± 34 µM | 238 ± 6 µM | 62 ± 12 µM | 47 ± 5 µM | – | – | significant cytotoxicity | accumulated in both compartments | – | – | – | – | – | –
3 | NC(=O)c1cc(N(CCCl)CCCl)c([N+](=O)[O-])cc1NO [compound 8] | – | – | 51±1 | 2.07 ± 0.08 µM | 1.2 ± 0.1 µM | 1.74 ± 0.23 µM | 2.3 ± 0.1 µM | 0.045 ± 0.001 µM | – | – | – | – | – | – | – | – | – | –
4 | NC(=O)c1cc(N2CC2)c([N+](=O)[O-])cc1NO [compound 2] | – | – | 3.4 | – | – | – | 22 µM | 6.3 µM | – | – | significant cytotoxicity | not detected in either compartment | – | – | – | – | – | –
5 | NC(=O)c1cc(N2CC2)c([N+](=O)[O-])cc1N [compound 3] | – | – | – | 7.9 ± 3.3 µM | 21 ± 3 µM | 56 ± 7 µM | 28 ± 8 µM | 3.7 ± 0.7 µM | – | – | significant cytotoxicity | accumulated in both compartments | ~0.2 µM/h | – | – | – | – | –
6 | NC(=O)c1cc(N2CC2)c(NO)cc1[N+](=O)[O-] [compound 4, 5-(aziridin-1-yl)-4-hydroxylamino-2-nitrobenzamide] | – | – | 63 and 63±5 | 45 ± 9 µM | 26 ± 5 µM | 6.9 ± 0.6 µM | 39 ± 6 µM | 0.62 ± 0.05 µM | – | – | greatest activity | not detected at all in the receiver compartment | – | 11–70 fold | greatly reduced | – | – | –
7 | NC(=O)c1cc(N2CC2)c([N+](=O)[O-])cc1[N+](=O)[O-] [compound 1, 5-(aziridin-1-yl)-2,4-dinitrobenzamide, reference compound] | – | – | – | 277 ± 36 µM | 485 ± 34 µM | 2950 ± 113 µM | 2480 ± 260 µM | 135 ± 28 µM | 0.0066 ± 0.0001 h⁻¹ | 0.22 ± 0.06 h⁻¹ | – | – | – | – | – | 0.0010 ± 0.0004 h⁻¹ | 0.08 ± 0.03 h⁻¹ | weak cytotoxicity
